Read-outs that look alike come from different tables or passages of the source.
Legend:
[1] = biological target: T1, LIMK2KD (Homo sapiens, UniProt P53671); assay: Differential (dynamic) scanning fluorimetry (DSF) assay, LIMK2KD; type: binding
T1 construct: The cDNA coding for LIMK2 residues 330 to 632 was PCR amplified; His6 (N, cleaved yes); made in house; host or cells: baculovirus; Sf9 for virus, TriEx insect cells for expression

[2] = biological target: T2, LIMK1KD (Homo sapiens, UniProt P53667); assay: Differential (dynamic) scanning fluorimetry (DSF) assay, LIMK1KD; type: binding; details: for ΔTm at 10 µM: read-out: TM Shift LIMK1 (K)
T2 construct: His6 (N, cleaved yes); made in house; host or cells: baculovirus; Sf9 for virus, TriEx insect cells for expression
T2 sequence (P53667 330-637): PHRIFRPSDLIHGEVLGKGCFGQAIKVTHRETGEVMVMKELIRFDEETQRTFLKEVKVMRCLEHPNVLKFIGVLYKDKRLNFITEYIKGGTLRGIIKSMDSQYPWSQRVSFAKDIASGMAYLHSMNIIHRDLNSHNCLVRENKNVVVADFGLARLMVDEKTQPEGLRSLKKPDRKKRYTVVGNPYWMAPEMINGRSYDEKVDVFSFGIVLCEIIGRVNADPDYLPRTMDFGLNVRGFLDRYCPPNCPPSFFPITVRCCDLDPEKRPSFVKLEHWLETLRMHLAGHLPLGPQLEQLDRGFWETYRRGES

[3] = LIMK2KD, compound 10 µM, single shot, read-out: TM Shift LIMK2 (K)
[4] = 2 µM LIMK1KD, compound 10 µM, single shot
[5] = LIMK2KD, compound 10 µM, single shot
[6] = LIMK2KD, compound 10 µM, single shot, 10 µM

T1 sequence (P53671 330-632): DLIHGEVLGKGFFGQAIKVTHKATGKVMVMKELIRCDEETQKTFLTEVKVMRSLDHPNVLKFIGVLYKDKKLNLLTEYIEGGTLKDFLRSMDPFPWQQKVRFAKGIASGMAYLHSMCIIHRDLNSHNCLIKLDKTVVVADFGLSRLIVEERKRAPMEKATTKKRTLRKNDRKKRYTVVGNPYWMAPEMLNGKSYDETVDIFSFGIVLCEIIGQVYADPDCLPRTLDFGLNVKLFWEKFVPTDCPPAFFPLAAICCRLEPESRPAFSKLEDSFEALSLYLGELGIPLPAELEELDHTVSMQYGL

ΔTm at 10 µM [1, 3] | ΔTm at 10 µM [2, 4] | TM Shift LIMK1 (K) [2, 4] | TM Shift LIMK2 (K) [1, 5] | Structure (SMILES) | also measured
0.3 °C | 0.9 °C | – | – | CCN1CCN(Cc2ccc(Nc3ncc(F)c(-c4cc(F)c5nc(C)n(C(C)C)c5c4)n3)nc2)CC1 [LY2835219] | –
0.1 °C | 2.5 °C | – | – | C[C@@H](Oc1ccc2[nH]nc(/C=C/c3cnn(CCO)c3)c2c1)c1c(Cl)cncc1Cl [LY2874455] | –
1.8 °C | 0.2 °C | – | – | CS(=O)(=O)CCNCc1ccc(-c2ccc3ncnc(Nc4ccc(OCc5cccc(F)c5)c(Cl)c4)c3c2)o1 [Lapatinib (GW-572016) Ditosylate, Lapatinib] | –
0.1 °C | 0.7 °C | – | – | COc1cc2nccc(Oc3ccc(NC(=O)NC4CC4)c(Cl)c3)c2cc1C(N)=O [Lenvatinib (E7080), Lenvatinib] | –
5 °C | 2 °C | – | – | Cc1ccc(F)c(NC(=O)Nc2ccc(-c3cccc4[nH]nc(N)c34)cc2)c1 [Linifanib] | –
0.9 °C | – | 0.8 K | – | C[C@]1(O)C[C@@H](c2nc(-c3ccc4ccc(-c5ccccc5)nc4c3)c3c(N)nccn32)C1 [Linsitinib] | TM Shift LIMK2 (K) ([1]; LIMK2KD, compound 10 µM, single shot, listed as OSI-906 (Linsitinib), 10 µM): 0.7 K; TM Shift LIMK1 (K) ([2]; 2 µM LIMK1KD, compound 10 µM, single shot, listed as OSI-906 (Linsitinib)): 0.2 K
2.1 °C | 0.4 °C | – | – | Cn1cnc2c(F)c(Nc3ccc(Br)cc3F)c(C(=O)NOCCO)cc21 [MEK162 (ARRY-162, ARRY-438162)] | –
1.1 °C | 3.6 °C | – | – | COCCNCc1ccc(-c2cc3nccc(Oc4ccc(NC(=S)NC(=O)Cc5ccc(F)cc5)cc4F)c3s2)nc1 [MGCD-265] | –
0 °C | 1.2 °C | – | – | C=CCn1c(=O)c2cnc(Nc3ccc(N4CCN(C)CC4)cc3)nc2n1-c1cccc(C(C)(C)O)n1 [MK-1775] | –
– | – | 0.4 K | -1.1 K | Cl.Cl.NC1(c2ccc(-c3nc4ccn5c(=O)[nH]nc5c4cc3-c3ccccc3)cc2)CCC1 [MK-2206 2HCl] | –
0.3 °C | 0.8 °C | – | – | CN(C[C@@H]1COCCO1)S(=O)(=O)Nc1ccc2ccc3ncc(-c4cnn(C)c4)cc3c(=O)c2c1 [MK-2461] | –
0.9 °C | 1.5 °C | – | – | O=C(O)[C@]1(Cc2cccc(Nc3nccs3)n2)CC[C@@H](Oc2cccc(Cl)c2F)CC1 [MK-5108 (VX-689)] | –
– | – | 1.0 K | -0.3 K | O=C(c1cccc(Cl)c1F)N1CCN(Cc2cccc(Nc3nccs3)n2)CC1 [MK-8745] | –
– | – | – | – | Cn1cc(-c2cnn3c(N)c(Br)c([C@@H]4CCCNC4)nc23)cn1 [MK-8776 (SCH 900776)] | ΔTm at 10 µM ([1]; read-out: TM Shift LIMK2 (K)): 2.2 °C; ΔTm at 10 µM [2]: 1.8 °C
1 °C | -0.4 °C | – | – | O=C(O)c1ccc(Nc2ncc3c(n2)-c2ccc(Cl)cc2C(c2c(F)cccc2F)=NC3)cc1 [MLN8054] | –
0 °C | 0.4 °C | – | – | Cc1ccc(NC(=O)c2ccc(CN3CCN(C)CC3)cc2)cc1Nc1nc(-c2cccnc2)cs1 [Masitinib (AB1010), Masitinib] | –
0 °C | 0.1 °C | – | – | CO[C@@H]1[C@H](N(C)C(=O)c2ccccc2)C[C@H]2O[C@]1(C)n1c3ccccc3c3c4c(c5c6ccccc6n2c5c31)C(=O)NC4 [Midostaurin] | –
0.6 °C | 0.2 °C | – | – | CNC(=O)c1nn(C)c2c1C(C)(C)Cc1cnc(Nc3ccc(N4CCN(C)CC4)cc3)nc1-2 [Milciclib (PHA-848125), Milciclib] | –
– | – | 6.3 K | – | N#CCNC(=O)c1ccc(-c2ccnc(Nc3ccc(N4CCOCC4)cc3)n2)cc1 [Momelotinib] | TM Shift LIMK2 (K) [1, 6]: 4.2 K
0.5 °C | 0.6 °C | – | – | CC1(C)CNc2cc(NC(=O)c3cccnc3NCc3ccncc3)ccc21 [Motesanib Diphosphate (AMG-706), Motesanib Diphosphate] | –
-0.4 °C | 0.6 °C | – | – | FC(F)(F)c1ccc(/C=C/c2nc(COc3ccc(CCCCn4ccnn4)cc3)co2)cc1 [Mubritinib (TAK 165), Mubritinib] | –
– | – | 0.0 K | -2.2 K | CCN(CC)CCCC(C)Nc1nc(C)cc(Nc2ccc3nc(C)cc(N)c3c2)n1 (centres unmarked) [NSC 23766] | –
-0.9 °C | 0.8 °C | – | – | Nc1nc(N)c(N=O)c(OCC2CCCCC2)n1 [NU6027] | –
– | – | -0.7 K | 3.0 K | O=c1cc(N2CCOCC2)oc2c1ccc1ccccc12 [NU7026] | –
– | – | 0.5 K | -0.9 K | O=c1cc(N2CCOCC2)oc2c(-c3cccc4c3sc3ccccc34)cccc12 [NU7441 (KU-57788)] | –

ΔTm at 10 µM [1, 3] | ΔTm at 10 µM [2, 4] | TM Shift LIMK1 (K) [2, 4] | TM Shift LIMK2 (K) [1, 5] | Structure (SMILES) | also measured
– | – | 0.2 K | 0.1 K | Nc1ncnc2c1c(-c1cccc(OCc3ccccc3)c1)cn2C1CC(CN2CCCC2)C1 (centres unmarked) [NVP-ADW742] | –
0.4 °C | -0.2 °C | – | – | Nc1ncnc2c1c(-c1cccc(OCc3ccccc3)c1)cn2[C@H]1C[C@@H](CN2CCC2)C1 [NVP-AEW541] | –
– | – | 0.0 K | – | CCN1CCN(c2ccc(Nc3cc(N(C)C(=O)Nc4c(Cl)c(OC)cc(OC)c4Cl)ncn3)cc2)CC1 [NVP-BGJ398] | TM Shift LIMK2 (K) [1, 6]: -0.5 K; TM Shift LIMK2 (K) ([1]; LIMK2KD, compound 10 µM, single shot, listed as BGJ398 (NVP-BGJ398), 10 µM): 0.5 K; TM Shift LIMK1 (K) ([2]; 2 µM LIMK1KD, compound 10 µM, single shot, listed as BGJ398 (NVP-BGJ398)): 0.7 K
– | – | -0.2 K | 1.6 K | Cc1ccc(C(=O)Nc2cccc(C(F)(F)F)c2)cc1Nc1nc(-c2cccnc2)nc2c1cnn2C [NVP-BHG712] | –
– | – | 1.5 K | 0.2 K | Fc1cc(-c2cccc3ncc(-c4cnn(C5CCNCC5)c4)nc23)cc(F)c1CN1CCOCC1 [NVP-BSK805 2HCl] | –
– | – | -0.5 K | 2.9 K | Cn1cc(-c2ccc3ncc(Cc4ccc5ncccc5c4)n3n2)cn1 [NVP-BVU972] | –
0.3 °C | 1.3 °C | – | – | COC(=O)c1ccc2c(c1)NC(=O)/C2=C(\Nc1ccc(N(C)C(=O)CN2CCN(C)CC2)cc1)c1ccccc1 [Nintedanib] | –
0.2 °C | 2.2 °C | – | – | COc1cccc2cc(-c3nc([C@H]4CC[C@H](C(=O)O)CC4)n4ncnc(N)c34)[nH]c12 [OSI-027] | –
– | – | 0.1 K | -0.1 K | C#Cc1cccc(Nc2ncnc3cc(OCCOC)c(OCCO)cc23)c1 [OSI-420] | –
6.2 °C | 0.7 °C | – | – | O=C(Nc1ccc(OC(F)(F)F)cc1)c1sccc1NCc1ccnc2ccccc12 [OSI-930] | –
– | – | -1.2 K | 0.8 K | NCC(=O)Nc1ccc(-n2nc(C(F)(F)F)cc2-c2ccc3c(ccc4ccccc43)c2)cc1 [OSU-03012 (AR-12)] | –
– | 1.9 °C | – | – | Cc1[nH]c(/C=C2\C(=O)Nc3ccccc32)c(C)c1CCC(=O)O [Orantinib] | TM Shift LIMK2 (K) [1, 6]: 1.0 K; TM Shift LIMK2 (K) ([1]; LIMK2KD, compound 10 µM, single shot, listed as TSU-68 (SU6668, Orantinib), 10 µM): 2.8 K; TM Shift LIMK1 (K) ([2]; 2 µM LIMK1KD, compound 10 µM, single shot, listed as TSU-68 (SU6668, Orantinib)): 1.7 K
– | – | 0.7 K | 1.3 K | CN1CCC(c2c(O)cc(O)c3c(=O)cc(-c4ccccc4Cl)oc23)C1CO (centres unmarked) [P276-00] | –
– | – | -0.8 K | -0.3 K | COc1cccc(-c2cc(=O)c3ccccc3o2)c1N [PD98059] | –
– | – | 0.4 K | 2.0 K | C=CC(=O)Nc1ccc2ncnc(Nc3cccc(Br)c3)c2c1 [PD168393] | –
1.2 °C | 1.1 °C | – | – | CCN(CC)CCCCNc1ncc2cc(-c3cc(OC)cc(OC)c3)c(NC(=O)NC(C)(C)C)nc2n1 [PD173074] | –
0.9 °C | 0.1 °C | – | – | O=C(NOCC1CC1)c1ccc(F)c(F)c1Nc1ccc(I)cc1Cl [PD184352 (CI-1040)] | –
– | – | 0.6 K | 2.8 K | O=C(NOCC(O)CO)c1cc(Br)c(F)c(F)c1Nc1ccc(I)cc1F (centres unmarked) [PD318088] | –
– | – | 2.9 K | 0.2 K | CN(c1ccccc1CNc1nc(Nc2ccc3c(c2)CC(=O)N3)ncc1C(F)(F)F)S(C)(=O)=O [PF 431396] | –
– | – | 1.1 K | – | CN(c1ncccc1CNc1nc(Nc2ccc3c(c2)CC(=O)N3)ncc1C(F)(F)F)S(C)(=O)=O [PF-00562271] | TM Shift LIMK2 (K) [1, 6]: 0.3 K
– | – | -0.5 K | – | CN(c1ncccc1CNc1nc(Nc2ccc3c(c2)CC(=O)N3)ncc1C(F)(F)F)S(C)(=O)=O [PF-562271] | TM Shift LIMK2 (K) [1, 6]: -0.7 K
– | – | 1.0 K | 0.7 K | CS(=O)(=O)c1cccc(CNc2nc(Nc3ccc4c(c3)CCC(=O)N4)ncc2C(F)(F)F)c1 [PF-573228] | –
– | – | 1.5 K | -0.2 K | Nc1nccc(-c2c(-c3ccc(F)cc3)ncn2C2CCCCC2)n1 [PF-670462] | –
– | – | 0.7 K | -0.4 K | Cc1nc(Nc2n[nH]c3c2CN(C(=O)N[C@H](CN(C)C)c2ccccc2)C3(C)C)c2sccc2n1 [PF-03758309] | –

Structure (SMILES) | ΔTm at 10 µM [1, 3] | ΔTm at 10 µM [2, 4] | TM Shift LIMK1 (K) [2, 4] | TM Shift LIMK2 (K) [1, 5] | also measured
C[C@]12O[C@H](C[C@]1(O)CO)n1c3ccccc3c3c4c(c5c6ccccc6n2c5c31)CNC4=O [Lestaurtinib] | – | 5 °C | – | – | ΔTm at 10 µM ([1]; read-out: TM Shift LIMK2 (K), LIMK2KD, compound 10 µM, single shot): 2 °C
CCOc1cc2ncc(C#N)c(Nc3ccc(OCc4ccccn4)c(Cl)c3)c2cc1NC(=O)/C=C/CN(C)C [Neratinib (HKI-272), Neratinib] | – | 0.2 °C | – | – | ΔTm at 10 µM ([1]; read-out: TM Shift LIMK2 (K)): 1 °C
Cc1cn(-c2cc(NC(=O)c3ccc(C)c(Nc4nccc(-c5cccnc5)n4)c3)cc(C(F)(F)F)c2)cn1 [Nilotinib (AMN-107), Nilotinib] | 0.4 °C | 0.5 °C | – | – | –

— PMC6835155, “Lessons from LIMK1 enzymology and their impact on inhibitor design” (Biochemical Journal, 2019)
